Patent publication US20260317333A1, “Heteroaryl Compounds as Ligand Directed Degraders of IRAK4” (Celgene Corporation, priority 2023, published 2026)
Structures can show the parent of a compound that is named as a salt.

Target: T1, IRAK4 (Homo sapiens, UniProt Q9NWZ3)
T1 sequence (Q9NWZ3 1-460): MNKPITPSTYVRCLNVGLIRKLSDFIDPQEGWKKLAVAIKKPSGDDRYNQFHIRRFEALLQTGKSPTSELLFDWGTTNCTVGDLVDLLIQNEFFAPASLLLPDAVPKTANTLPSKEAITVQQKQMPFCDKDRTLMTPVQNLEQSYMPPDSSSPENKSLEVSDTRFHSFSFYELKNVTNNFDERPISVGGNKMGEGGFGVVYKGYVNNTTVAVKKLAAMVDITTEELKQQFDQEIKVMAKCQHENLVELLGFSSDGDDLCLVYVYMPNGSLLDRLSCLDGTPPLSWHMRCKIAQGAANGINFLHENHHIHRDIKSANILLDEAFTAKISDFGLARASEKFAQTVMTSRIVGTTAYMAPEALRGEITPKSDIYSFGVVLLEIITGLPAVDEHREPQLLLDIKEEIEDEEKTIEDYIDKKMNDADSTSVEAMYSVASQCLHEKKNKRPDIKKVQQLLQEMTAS
Assay: ALE THP1 HTRF (IRAK4 degradation in THP1 cells, HTRF with anti-IRAK4 antibodies)
Type: cell-based
Design: THP1 Homogeneous Time Resolved Fluorescence (ALE THP1 HTRF) Procedure; endogenous in cells; host or cells: THP1
Conditions: THP1 cell lysate; for DC50: read-out: ALE THP1 HTRF EC50
Procedure: Cell culture media was prepared in a tissue culture hood in a sterile environment by adding 10% FBS and 1% Penicillin Streptomycin to 500 mL no phenol red RPMI 1640 media. The media was filtered through a Nalgene Bottle Top Filter and stored at 4° C.
For Homogenous Time Resolved Fluorescence (HTRF) assays, a Cisbio HTRF kit was used, which included: Lysis Buffer #1 4×, Blocking Reagent #3 100×, 20× Antibody 1 (Anti-IRAK4 d2), 20× Antibody 2 (Anti-IRAK4 k), and Detection Buffer.
4× Lysis Buffer was stored at 4° C. For use as 1× Lysis buffer, the 4× solution was diluted with de-ionized water (distilled water, Gibco Cat. #15230279) and 100× Blocking Reagent in a 1:3:0.04 volume ratio.
20× Antibody Solution aliquots were stored at −80° C. and the Detection Buffer was stored at 4° C. For use as a 1× Antibody Solution, the 20× Antibody Solution aliquot was diluted with Detection Buffer in a 1:19 volume ratio.
Cells were lysed at room temperature for 45 min with shaking. A BCA protein assay was performed and normalization was conducted to the desired total protein concentration with 1× lysis buffer. Next, 1× Antibody Solutions were prepared by adding 380 μL Detection Buffer to 20 μL 20× Antibody Solution aliquots and mixing well. 1× Antibody Solutions were combined 1:1 and briefly vortexed. For control wells, 20 μL 1× anti IRAK4-k Antibody Solution was saved. The 384-well plate (ProxiPlate-384 Plus, Perkin Elmer Cat. #6008289) was loaded by adding 4 μL of the mixed Antibody Solution to empty wells using a single channel repeater. Using a multi-channel repeater, 16 μL lysate was added per well, and any bubbles that were formed were popped with 20 μL pipette tips and Kimwipe edges. In column 10, triplicates of each control were prepared. In wells A10, B10, and C10, buffer control was prepared by adding 16 μL Lysis Buffer and 4 μL Detection Buffer. In wells D10, E10, and F10, cryptate control was prepared by adding 16 μL Lysis Buffer, 2 μL Detection Buffer, and 2 μL 1× anti-IRAK4-k Antibody Solution. In wells G10, H10, and I10, a negative control was prepared by adding 16 μL Lysis Buffer and 4 μL mixed Antibody Solution. The plate was sealed with a clear seal and covered with an aluminum lid. The plate was spun down at 800 g for 5 min and incubated in the dark at room temperature overnight. The next day, the plate was spun down at 800 g for 5 min. The samples were analyzed by a plate reader (Envision, PerkinElmer) using the Desnor 384 HTRF program.

SMILES	ALE THP1 HTRF YMIN	DC50
N[C@@H]1C[C@@H](F)CN(c2ccn3ncc(C(=O)Nc4cn([C@H]5CC[C@H](CN6CCN(C(=O)c7ccc(C8CCC(=O)NC8=O)cc7)CC6)CC5)nc4C(F)(F)F)c3n2)C1 (some centres unmarked) [Compound P-4]	32%	> 10000 nM
N[C@@H]1C[C@@H](F)CN(c2ccn3ncc(C(=O)Nc4cn([C@H]5CC[C@H](CN6CCC(Nc7ccc(C8CCC(=O)NC8=O)cc7)CC6)CC5)nc4C(F)(F)F)c3n2)C1 (stereo partly drawn) [Compound P-5, N-[1-[4-[[4-[4-(2,6-dioxo-3-piperidyl)anilino]-1-piperidyl]methyl]cyclohexyl]-3-(trifluoromethyl)pyrazol-4-yl]-5-[(3R,5R)-3-amino-5-fluoro-1-piperidyl]pyrazolo[1,5-a]pyrimidine-3-carboxamide hydrochloride]	45%	57 nM
N[C@@H]1C[C@@H](F)CN(c2ccn3ncc(C(=O)Nc4cn([C@H]5CC[C@H](CN6CCC(CNc7cccc(C8CCC(=O)NC8=O)c7)CC6)CC5)nc4C(F)(F)F)c3n2)C1 (stereo partly drawn) [Compound P-6, 5-((3R,5R)-3-amino-5-fluoropiperidin-1-yl)-N-(1-((1r,4r)-4-((4-(((3-(2,6-dioxopiperidin-3-yl)phenyl)amino)methyl)piperidin-1-yl)methyl)cyclohexyl)-3-(trifluoromethyl)-1H-pyrazol-4-yl) pyrazolo[1,5-a]pyrimidine-3-carboxamide hydrochloride]	15%	17 nM
N[C@@H]1C[C@@H](F)CN(c2ccn3ncc(C(=O)Nc4cn([C@H]5CC[C@H](CN6CCC(Nc7cccc(C8CCC(=O)NC8=O)c7)CC6)CC5)nc4C(F)(F)F)c3n2)C1 (some centres unmarked) [Compound P-8]	>95%	> 10000 nM
N[C@@H]1C[C@@H](F)CN(c2ccn3ncc(C(=O)Nc4cn([C@H]5CC[C@H](C(=O)N6CCN(Cc7ccc(C8CCC(=O)NC8=O)cc7)CC6)CC5)nc4C(F)(F)F)c3n2)C1 (some centres unmarked) [Compound P-12]	57%	6860 nM
N[C@@H]1C[C@@H](F)CN(c2ccn3ncc(C(=O)Nc4cn([C@H]5CC[C@H](CN6CCN(Cc7ccc(C8CCC(=O)NC8=O)cc7)CC6)CC5)nc4C(F)(F)F)c3n2)C1 (some centres unmarked) [Compound P-13]	18%	405 nM

Other lines, results leading:

ALE THP1 HTRF YMIN	DC50	SMILES
>95%	> 10000 nM	N[C@@H]1C[C@@H](F)CN(c2ccn3ncc(C(=O)Nc4cn([C@H]5CC[C@H](CCN6CCC[C@H](c7ccc(C8CCC(=O)NC8=O)cc7)C6)CC5)nc4C(F)F)c3n2)C1 (stereo in doubt) [Compound P-29]
64%	> 10000 nM	N[C@@H]1C[C@@H](F)CN(c2ccn3ncc(C(=O)Nc4cn([C@H]5CC[C@H](C(=O)NC6CCN(c7cccc(C8CCC(=O)NC8=O)c7)CC6)CC5)nc4C(F)F)c3n2)C1 (some centres unmarked) [Compound P-14]
11%	4 nM	N[C@@H]1C[C@@H](F)CN(c2ccn3ncc(C(=O)Nc4cn([C@H]5CC[C@H](C(=O)NC6CCN(c7ccc(C8CCC(=O)NC8=O)cc7)CC6)CC5)nc4C(F)F)c3n2)C1 (stereo partly drawn) [Compound P-15, 5-[(3R,5R)-3-amino-5-fluoro-1-piperidyl]-N-[3-(difluoromethyl)-1-[4-[[1-[4-(2,6-dioxo-3-piperidyl)phenyl]-4-piperidyl]carbamoyl]cyclohexyl]pyrazol-4-yl]pyrazolo[1,5-a]pyrimidine-3-carboxamide hydrochloride]
18%	28 nM	CN(CC1CCN(C(=O)[C@H]2CC[C@H](n3cc(NC(=O)c4cnn5ccc(N6C[C@H](N)C[C@@H](F)C6)nc45)c(C(F)F)n3)CC2)CC1)c1cccc(C2CCC(=O)NC2=O)c1 (stereo partly drawn) [Compound P-16, 5-((3R,5R)-3-amino-5-fluoropiperidin-1-yl)-N-(3-(difluoromethyl)-1-((1r,4r)-4-(4-(((3-(2,6-dioxopiperidin-3-yl)phenyl)(methyl)amino)methyl)piperidine-1-carbonyl)cyclohexyl)-1H-pyrazol-4-yl)pyrazolo[1,5-a]pyrimidine-3-carboxamide hydrochloride]
